Test in all cases: NCI-60 cell line screen, 48 h
Assay [1] has as its system SK-OV-3 ovarian.
The test system of assay [2] is HCT-116 colon.
Assay [3] has as its system HS 578T breast.
Assay [4] concerns NCI/ADR-RES ovarian.
Assay [5] has as its system A549 NSCLC.
Assay [6] relates to IGROV1 ovarian.
Assay [7] relates to HT29 colon.
Assay [8] deals with SF-268 CNS.
The subject of assay [9] is MCF7 breast.

Several values for one entry are separate records, joined by “and”; a condition that tells them apart may be missing. Equal entries are not always repeated.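 Cultured in 96-well plates, cells were exposed to test compound for 48 hours across five concentrations. At the GI50, growth is halved. TGI denotes the concentration required for complete inhibition of growth.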

Take `O=C(Nc1ccccc1)Nc1ccc2cc3ccc(NC(=O)Nc4ccccc4)cc3nc2c1`: the GI50 in [1] was 2.13 µM; in assay [2], 0.232 µM; in assay [3] it was 1.53 µM; in [4], 68.7 µM; in [5] it was 11.2 µM; in [6] it was 1.66 µM. In addition, the GI50 in assay [7] is 1.89 µM; in assay [8], 1.68 µM; in [9] it was 1.08 µM. The TGI was 4.5 µM in assay [1]; 0.615 µM in [2]; 3.47 µM in assay [3]; > 100 µM in assay [4]; > 100 µM in assay [5]; 4.3 µM in [6]. For the same compound, the TGI worked out at 3.73 µM in [7], 3.54 µM in assay [8] and 3.14 µM in assay [9].

For the compound `c1ccc(C2OC3(CCC[C@H]4C[C@H]43)O[C@H]2c2ccccc2)cc1` (some centres undefined), the TGI in assay [1], in assay [2], in assay [5], in assay [6], in assay [7] and in assay [8] was > 100 µM throughout.

Take `O=C1N2Cc3c4ccc5c3CN3C(=O)N6Cc7c(ccc(c7CN1C6(c1ccccc1)C23c1ccccc1)OCCOCCNCCOCCO4)OCCOCCNCCOCCO5` (centres undefined): the TGI in assay [1], in assay [2], in [5], in assay [6], in assay [7] and in [8] was > 100 µM throughout.

With `O=C1C(c2ccc(Br)cc2)=[N+]([O-])c2ccccc21`, the TGI was > 100 µM in [1]; 27.5 µM in [2]; 41.2 µM in assay [5]; 33.8 µM in assay [6]; 43.8 µM in [7]; 32.3 µM in assay [8].

Consider `O=C(O)[C@H](NS(=O)(=O)c1ccc(F)cc1)c1ccccc1`, for which the TGI in assay [1], in assay [2], in assay [5], in assay [6], in [7] and in assay [8] was > 100 µM throughout.

`O=[N+]([O-])C=C(c1ccc(Cl)cc1)c1ccc(Cl)cc1`: the TGI in assay [2] came to 31.5 µM; in [5] it was 46.7 µM; in assay [6], 48.1 µM; in [7], 35.5 µM.

In the case of `CN(C)CCNC(=O)c1cccc2cc3c(Cl)cccc3nc12`, the TGI in assay [1] amounted to 10.8 µM; in assay [2], 2.97 µM; in assay [5], 9.35 µM; in assay [6], 6.96 µM; in assay [7], 6.94 µM.

For the compound `CCOC(=O)C(=O)CC1=Nc2ccccc2SC(c2cccc(C)c2)C1` (centres undefined), the TGI in [2] is 27.8 µM; in assay [5], 50.8 µM; in [6], 35.7 µM; in [7], 29.8 µM; in assay [8], 32.2 µM.

Turning to `COc1ccc2c(c1OC)CO[C@@H]2[C@H]1c2c(cc3c(c2OC)OCO3)CCN1S(=O)(=O)c1cn(C)cn1`, the GI50 in assay [1] was 2.57 µM; in [2], 0.494 µM; in assay [4] it was 1.97 µM; in [5], 1.99 µM; in [6], 1.45 µM; in assay [7] it was 0.614 µM. For the same compound, the GI50 in [8] was 5.64 µM; in assay [9] it was 0.407 µM. Further, the TGI in assay [1] was > 100 µM; in assay [2], > 100 µM; in [4], 8.35 µM; in assay [5], > 100 µM; in [6], > 100 µM; in assay [7], > 100 µM. The TGI in assay [8] and in assay [9] was > 100 µM in each case.

As for `CC1/C(=N\O)CC(c2ccccc2)N(C)C1c1ccccc1` (centres undefined), the TGI in assay [1], in assay [2], in assay [5], in [6], in assay [7] and in [8] was > 100 µM each time.

With `CC1=C(C(=O)Nc2ccccc2)C(c2cccc3ccccc23)C(C(=O)Nc2ccccc2)=C(C)N1`, the TGI was determined as 38.5 µM in assay [1]; 28.7 µM in [2]; 82 µM in assay [5]; 56.9 µM in assay [6]; 36.2 µM in [7]; 43.1 µM in [8].

On to `Cc1cc2c(C)n(Cc3ccccc3Cl)nc2c(C(=O)O)c1C`, for which the TGI in assay [1], in assay [2], in [5], in assay [6], in assay [7] and in assay [8] was > 100 µM in each case.

For the compound `CCCCCCCCCCCCCCCCCCn1cc[n+](C)c1`, the GI50 in assay [1] is 1.23 µM and 1.1 µM; in assay [3], 0.335 µM; in [4], 1.58 µM; in assay [6] it was 0.253 µM and 0.516 µM; in assay [7] it was 0.403 µM and 0.358 µM; in assay [9] it was 0.513 µM and 1 µM. For the same compound, the TGI in assay [1] was 4.14 µM and 2.62 µM; in assay [3], 1.8 µM; in assay [4] it was 5.47 µM; in assay [7], 1.64 µM and 1.45 µM; in assay [9], 1.79 µM and 2.35 µM.

`C[C@]12CC[C@H]3[C@@H](CC=C4C[C@@H](N5CCCC5)CC[C@@]43C)[C@@H]1C/C(=C\c1cccc(OCCN3CCOCC3)c1)[C@@H]2O`: the GI50 in [1] was 17.2 µM; in assay [2], 1.66 µM; in assay [3] it was 2.88 µM; in [5], 3.48 µM; in [6] it was 12.8 µM; in [7] it was 0.532 µM. Also, the GI50 was 13.3 µM in assay [8] and 19.7 µM in assay [9]. The TGI was 35.1 µM in assay [1]; 5.13 µM in assay [2]; 18.2 µM in assay [3]; 45.4 µM in assay [5]; > 100 µM in assay [6]; 15.7 µM in assay [7]. The TGI is > 100 µM in [8] and 98.1 µM in assay [9].

For `O=C(CC1OC(O)C(Cl)=C1Cl)c1cccnc1` (centres undefined), the TGI in [1] was > 100 µM; in [2], > 54.8 µM; in assay [5] it was > 100 µM; in assay [6], > 100 µM; in assay [7], > 59.7 µM; in assay [8], > 100 µM.

With `CN(C)C(=N/O)/C(=N\O)N(C)C`, the TGI in assay [1], in assay [2], in assay [5], in [6], in assay [7] and in assay [8] was > 100 µM each time.

In the case of `O=C1C=CC=C/C1=C1/SC(c2ccccc2)=C(O)N1c1ccccc1`, the TGI in assay [1], in assay [2], in assay [5], in assay [6], in [7] and in assay [8] was > 100 µM in each case.

Regarding `C[CH2][Ge]([CH2]C)([CH2]C)[O]C(=O)C(OC(C)=O)c1ccccc1` (centres undefined), the GI50 in assay [1], in assay [2], in [5], in assay [6], in assay [7] and in assay [8] was > 100 µM throughout. The TGI in assay [1], in assay [2], in assay [5], in assay [6], in assay [7] and in [8] was > 100 µM throughout.

Take `COc1ccc2c3c([nH]c2c1[N+](=O)[O-])C(C)N(Cc1ccccc1)CC3` (centres undefined): the TGI in assay [2] is 24 µM; in [5] it was > 100 µM; in [6], 30.9 µM; in assay [7], 13.7 µM; in [8], 5.83 µM.

As to `CC1=C(/C=C/C(C)=C/C2CC(N(C)C)=CC(=O)O2)C(C)(C)CCC1` (centres undefined), the TGI in assay [1] came out at 30.3 µM; in [2], 43 µM; in assay [5], 22.3 µM; in [6] it was 29 µM; in assay [7], 27.9 µM; in assay [8], 40.6 µM.

On to `ClC/C=C/COC1CCCCO1` (centres undefined), for which the TGI in assay [1], in assay [2], in assay [5], in assay [6], in [7] and in [8] was > 100 µM in each case.

With `CN(c1ccc(C(=O)c2ccc(N(C)S(C)(=O)=O)cc2)cc1)S(C)(=O)=O`, the TGI in [1], in [2], in [5], in assay [7] and in assay [8] was > 100 µM throughout.

`c1ccc2c3c([nH]c2c1)[C@H]1C2CCCCN2CN1CC3` (some centres undefined): the TGI in assay [1], in assay [2], in [5], in assay [6], in [7] and in assay [8] was > 100 µM each time.

Turning to `CNC(=O)c1c(NC(=O)c2ccc(C(C)(C)C)cc2)sc2c(CN(C)C)c(O)ccc12`, the GI50 in assay [2] is 0.936 µM; in assay [3] it was 2.02 µM; in assay [8] it was 1.77 µM; in assay [9] it was 1.41 µM. The TGI in assay [2] came out at 2.43 µM; in assay [3], 4.56 µM; in assay [8] it was 3.46 µM; in assay [9], 2.95 µM.

Regarding `Cc1cccc(C)c1NC(=O)C1=NC(=S)NC(c2ccccc2)C1c1nc2ccccc2s1` (centres undefined), the TGI in [1], in assay [2], in [5], in assay [6], in assay [7] and in [8] was > 100 µM each time.

For `CC(=O)[O-].Cn1ccnc1CNCc1nccn1C.[Cu+2].[O-][Cl+3]([O-])([O-])[O-]`, the GI50 in assay [1], in assay [2], in [5], in assay [6], in assay [7] and in [8] was > 100 µM each time. Moreover, the TGI in assay [1], in assay [2], in assay [5], in assay [6], in assay [7] and in assay [8] was > 100 µM throughout.

For `O=C([CH-]C(=O)c1ccccc1)c1ccccc1.[CH-]1CCCCC1.[CH-]1CCCCC1.[CH-]1CCCCC1.[Sn+4]`, the GI50 in assay [1] is 43.5 µM; in assay [2], 6.3 µM; in [5] it was 15.5 µM; in [6], 11.8 µM; in assay [7], 14 µM; in [8], 7.64 µM. The TGI in assay [1] turned out to be 68.6 µM; in assay [2] it was 19.9 µM; in [5], 38.6 µM; in assay [6], 33.4 µM; in assay [7], 38.5 µM; in assay [8], 24.1 µM.

For `O=c1[nH]c2ccccc2nc1/C=C(\O)c1ccccc1O`, the TGI in [1], in [2], in [5], in assay [6], in assay [7] and in [8] was > 100 µM throughout.

For `C[N+](C)(C)CC(=O)N/N=C(/C(=O)Nc1ccc(Br)cc1)C1C(=O)NC(=O)NC1=O`, the TGI in assay [1], in assay [2], in assay [5], in [6], in [7] and in assay [8] was > 100 µM throughout.

With `COc1cc(/C=C/C(=O)/C=C/c2ccc(-n3ccnc3C)cc2)ccc1O`, the GI50 in assay [1] was 8.14 µM; in assay [4], 14.5 µM; in [5], 3.22 µM; in assay [6] it was 2.04 µM; in assay [7] it was 1.95 µM; in assay [8], 2.9 µM. The TGI in [1] was > 100 µM; in assay [4], > 100 µM; in [5], > 100 µM; in assay [6], 5.12 µM; in assay [7], 3.9 µM; in assay [8], 12.1 µM.

For the compound `CCc1cccc(C)c1NC(=O)C(=O)CC(=O)c1ccc(Cl)s1`, the TGI in [1], in assay [2], in assay [5], in assay [6], in assay [7] and in [8] was > 100 µM throughout.

Take `CCOP(=O)(OCC)C1CCCOC1=O` (centres undefined): the TGI in [1], in assay [2], in assay [5], in [6], in assay [7] and in assay [8] was > 100 µM throughout.

The record behind these values is PubChem BioAssay (NCI).
